Experiments:
[1] = system: isovaleric acid (malodorous substance); assay: Olfactory masking test based on sensory evaluation with 20 specialists; type: in vivo; design: key: 0 = no masking effect, 5 = complete masking effect; settings: isovaleric acid (1%) 2 μL, test substance 4 μl, vaporized and admixed in PP bottle; scale 0 (No masking effect) to 5 (Complete masking effect)
Protocol: An olfactory masking test based on sensory evaluation was performed with 20 specialists. Isovaleric acid (1%) was used as a malodorous substance, and each of the substances listed in Table 2 was employed as a masking material. The malodorous substance (2 μL) and each test substance (4 μl) were separately absorbed by cotton balls (diameter: 1 cm), and placed in each injection syringe (capacity: 50 mL) at room temperature for 12 hours to vaporized the substance therein. Both the vaporized malodorous substance and the vaporized test substance were injected into a PP bottle (capacity: 500 mL) with a cap and admixed in the bottle. In evaluation, each specialist slightly opened the cap of the PP bottle and smelled the odor in the bottle, whereby the masking score was determined. The masking score was evaluated by the following six criteria, based on the intensity of odor in a PP bottle to which only the malodorous substance had been added.
1: Only slight masking effect
3: Satisfactory masking effect
4: Substantially complete masking effect
5: Complete masking effect

[2] = system: voltage-dependent cation channel; assay: Whole-cell recording of inward current in isolated olfactory receptor cells; type: cell-based, Cynops pyrrhogaster
Protocol: Olfactory receptor cells were isolated from newts (Cynops pyrrhogaster) through a known method (Kurahashi et al., J. Physiol. (1989), 419: 177-192) and bathed in a normal Ringer's solution. More specifically, each newt which had been hibernated in ice-water was double-pithed, and the skull thereof was cut, to thereby remove the olfactory membrane. The removed olfactory membrane was incubated in 0.1% collagenase solution at 37° C. for five minutes. After washing off collagenase, the membrane tissue was broken by means of a glass pipette, to thereby isolate olfactory cells. The normal Ringer's solution had the following composition: NaCl 110 mM, KCl 3.7 mM, CaCl2 3 mM, MgCl2 1 mM, glucose 15 mM, sodium pyruvate 1 mM, HEPES 2 mM, and Phenol Red 0.001% (w/v), with a pH of 7.4 (adjusted with NaOH).
The membrane current of the isolated olfactory cells was recorded through the whole-cell recording method, while the membrane potential was fixed (Kawai et al., J. Gen. Physiol. (1997), vol. 109: 265-272). The electrode employed was produced from borosilicate glass capillary (diameter: 1.2 mm) by means of a puller for electrode fabrication (PP-830, product of Narishige Scientific Instruments). […] Then, an electrode solution was added in the electrode, and an Ag—AgCl wire was inserted into the electrode. The Ag—AgCl wire was connected to a patch-clamp amplifier (Axopatch 1D, 200B, product of Axon Instrument), whereby fixation of the membrane potential and depolarization stimulation were performed. The employed electrode solution had the following composition: KCl 120 mM, HEPES 2 mM, and Phenol Red 0.001% (w/v), with a pH of 7.4 (adjusted with KOH). The membrane current was recorded by a computer which was connected by the mediation of the patch-clamp amplifier and an A/D converter (Digidata 1320, product of Axon Instrument). Each test substance was sprayed to the cells for stimulation, by means of a pressure-controller. The pressure controller is an apparatus which reduces the pressure of compressed air supplied by means of an air-compressor to a specific value under computer-controlled conditions and which feeds the compressed air for a predetermined period of time to a tail of the glass pipette in which the test substance has been charged (Ito et al., The Japanese Journal of Physiology, 1995, vol. 57, 127-133).
In order to investigate the effect of the test substance on the voltage-dependent cation channel activity, the membrane potential of the isolated olfactory cells was fixed to −100 mV, and depolarized to −20 mV for 20 ms at intervals of 200 ms. The peak amplitude of the inward current elicited immediately after depolarization was measured. Each of the test substances shown in Table 1 (1 μL) was mixed with the normal Ringer's solution (1 mL). Under continuous depolarization stimulation, the mixture was sprayed toward the olfactory cells (720 ms, at 50 kPa) through a glass pipette (tip diameter: 1 μm) that was placed such that the tip of the pipette was located in the vicinity ([…]) of the olfactory cells to add the mixture to the olfactory cells, and the change in inward current was monitored. Stimulation of one olfactory cell by the test substance was performed three times, and the three inward currents obtained from the cell were averaged. Each test substance was tested by three olfactory cells, and the three inward currents obtained from the cells were averaged. During the test, in very rare cases, the olfactory receptor responded to stimulation by the test substance, and inward current attributed to a CNG channel was observed. However, such cases were eliminated for evaluation. One conceivable reason for occurrence of such a case is that the test substance acts as an […] to the olfactory receptor on the olfactory cell employed in the test. CNG channel current is readily distinguishable from voltage-dependent channel current in terms of amplitude, peak shape, and duration. […]

[3] = test substance 1 μL in 1 mL normal Ringer's solution, sprayed 720 ms at 50 kPa, depolarized from −100 mV to −20 mV, (1−b/a)×100, average of three cells
[4] = values calculated in the experiments of Example 1, repeated in Table 3

SMILES | Masking score [1] | Percent inward current inhibition [2, 3] | Percent inward current inhibition [2, 4]
O=Cc1ccccc1 [Benzaldehyde] | 4.6 | 95.4% | 95.4%
C=CCc1ccc(O)c(OC)c1 [Eugenol] |  | 105.0% | 
CCOC(=O)C(C)C1CCCCC1 (centres unmarked) [Ethyl 2-cyclohexylpropionate] | 3.0 | 48.7% | 48.7%
CC(=O)OC1CCCCC1C(C)(C)C (centres unmarked) [o-tert-Butylcyclohexyl acetate] | 1.8 | 23.8% | 23.8%
CCOC(=O)C(C)CC (centres unmarked) [Ethyl 2-methylbutyrate] |  | 42.0% | 
CC(=O)OCc1ccccc1 [Benzyl acetate] |  | 110.8% | 
CC(C)(O)CCCC1=CCC(C=O)CC1 (centres unmarked) [4-(4-Hydroxy-4-methylpentyl)-3-cyclohexene-1-carboxaldehyde] | 1.7 | 35.7% | 35.7%
CC/C=C\CCO [cis-3-Hexenol] | 4.5 | 78.7% | 78.7%
OCCc1ccccc1 [β-Phenylethyl alcohol] | 2.9 | 82.6% | 82.6%
CC(=CCC1CC=C(C)C1(C)C)CO (centres unmarked) [2-Methyl-4-(2,2,3-trimethyl-3-cyclopenten-1-yl)-2-buten-1-ol] |  | 105.6% | 
O=C(OCc1ccccc1)c1ccccc1 [Benzyl benzoate] | 1.6 | 10.7% | 10.7%
CC(=O)OCCC(C)C [Isoamyl acetate] | 4.5 | 92.0% | 92.0%
CCOC(=O)C12CCCC1C1CCC2C1 (centres unmarked) [Ethyltricyclo[5.2.1.0^2,6]decane-2-carboxylate] | 1.9 | 11.6% | 11.6%
CC(C)=CCC/C(C)=C/CO [Geraniol] | 3.9 | 90.1% | 90.1%
CC(C)=CCCC(C)=CC=O [Citral] | 3.9 | 110.6% | 110.6%
CC1=CC(C)C(C=O)CC1 (centres unmarked) [2,4-Dimethyl-3-cyclohexene-1-carboxaldehyde] | 4.5 | 79.9% | 79.9%
CCC(O)COC1CCCCC1C(C)(C)C (centres unmarked) [1-(2-tert-Butylcyclohexyloxy)-2-butanol] | 1.7 | 27.1% | 27.1%
CC12CCC(CC1)C(C)(C)O2 [1,8-Cineole] | 3.6 | 46.5% | 46.5%
C=CC(C)(O)CCC=C(C)C (centres unmarked) [Linalool] | 4.1 | 106.5% | 106.5%
CCCCCC1C(=O)CCC1CC(=O)OC (centres unmarked) [Methyl dihydrojasmonate] |  | 107.1% | 
COc1ccc(C=O)cc1 [Anisaldehyde] | 3.9 | 89.3% | 89.3%
C=CC(C)(CCC=C(C)C)OC(C)=O (centres unmarked) [Linalyl acetate] | 3.0 | 43.3% | 43.3%
C=CC(C)CCCC(C)(C)O (centres unmarked) [Dihydromyrcenol] | 4.8 | 109.0% | 109.0%
CC(C=O)Cc1ccc(C(C)(C)C)cc1 (stereo not drawn) [p-tert-Butyl-α-methylhydrocinnamaldehyde] |  | 57.9% | 57.9%
CCCCCCCCC=O [n-Nonanal] |  | 107.4% | 
C/C=C/C(=O)C1=C(C)CCCC1(C)C [β-Damascone] | 2.4 | 56.1% | 56.1%
